Format in all cases: biochemical
Assay [1] has as its target T1, recombinant human MAO-A (monoamine oxidase-A) (Homo sapiens, UniProt P21397).
T1 construct: purchased Sigma-Aldrich
T1 sequence (P21397 1-527): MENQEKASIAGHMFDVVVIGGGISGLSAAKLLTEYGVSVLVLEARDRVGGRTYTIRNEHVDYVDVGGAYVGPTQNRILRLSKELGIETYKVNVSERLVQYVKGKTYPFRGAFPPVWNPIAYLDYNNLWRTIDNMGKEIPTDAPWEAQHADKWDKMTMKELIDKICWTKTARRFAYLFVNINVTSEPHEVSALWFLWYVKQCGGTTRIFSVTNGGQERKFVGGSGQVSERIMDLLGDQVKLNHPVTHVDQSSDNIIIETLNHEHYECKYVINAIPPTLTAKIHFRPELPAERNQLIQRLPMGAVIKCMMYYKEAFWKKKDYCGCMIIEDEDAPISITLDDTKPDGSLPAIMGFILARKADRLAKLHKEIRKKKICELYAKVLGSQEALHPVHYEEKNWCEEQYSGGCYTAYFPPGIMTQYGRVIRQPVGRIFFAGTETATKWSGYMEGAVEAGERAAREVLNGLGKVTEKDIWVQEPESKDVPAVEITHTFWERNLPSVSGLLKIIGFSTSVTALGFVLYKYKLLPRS
The experiment in a line: Activity on recombinant human MAO-A, method similar to VAP-1 assay, 0.5 mM tyramine substrate. Particulars: read-out: Inhibitory Activity (IC50, nM) MAO-A. In outline:
(§1)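 Amplex Red/HRP-coupled H2O2 fluorescence assay run as for VAP-1: enzyme in 50 mM sodium phosphate pH 7.4 preincubated with compound 30 min at 37 °C, then substrate (putrescine for DAO, benzylamine for MAO-B, tyramine for MAO-A) added with 200 uM Amplex Red, 1 U/mL HRP. Signal rate over 1-2 h; IC50 from 4-parameter logistic fit.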

In assay [2] the target is T2, recombinant human DAO (diamine oxidase) (Homo sapiens, UniProt P19801).
T2 construct: purchased R&D systems
T2 sequence (P19801 20-751): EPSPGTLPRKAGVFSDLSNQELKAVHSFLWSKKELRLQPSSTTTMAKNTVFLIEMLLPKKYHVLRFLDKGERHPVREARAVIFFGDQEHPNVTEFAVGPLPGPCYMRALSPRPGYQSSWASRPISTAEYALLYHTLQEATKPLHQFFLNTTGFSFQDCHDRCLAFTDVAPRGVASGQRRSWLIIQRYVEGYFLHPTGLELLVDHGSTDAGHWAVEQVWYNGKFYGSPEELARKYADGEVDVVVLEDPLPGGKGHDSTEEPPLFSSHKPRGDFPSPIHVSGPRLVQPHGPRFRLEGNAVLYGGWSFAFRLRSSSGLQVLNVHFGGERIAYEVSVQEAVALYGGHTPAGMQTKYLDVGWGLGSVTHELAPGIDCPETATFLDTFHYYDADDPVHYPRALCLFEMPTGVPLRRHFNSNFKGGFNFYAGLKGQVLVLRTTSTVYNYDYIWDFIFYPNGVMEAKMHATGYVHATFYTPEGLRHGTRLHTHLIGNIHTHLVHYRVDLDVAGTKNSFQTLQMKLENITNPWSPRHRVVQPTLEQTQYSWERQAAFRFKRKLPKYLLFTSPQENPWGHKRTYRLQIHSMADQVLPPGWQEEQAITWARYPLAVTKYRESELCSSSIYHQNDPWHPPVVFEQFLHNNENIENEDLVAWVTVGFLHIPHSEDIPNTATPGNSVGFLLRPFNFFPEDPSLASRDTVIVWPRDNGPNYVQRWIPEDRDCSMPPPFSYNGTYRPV
The experiment in a line: Activity on recombinant human DAO, method similar to VAP-1 assay, 1 mM putrescine substrate. The following applies: read-out: Inhibitory Activity (IC50, nM) DAO. In outline:
as §1

For a further assay, the target named is T3, recombinant human VAP-1 (Homo sapiens, UniProt Q16853).
T3 construct: purchased R&D systems
T3 sequence (Q16853 1-763): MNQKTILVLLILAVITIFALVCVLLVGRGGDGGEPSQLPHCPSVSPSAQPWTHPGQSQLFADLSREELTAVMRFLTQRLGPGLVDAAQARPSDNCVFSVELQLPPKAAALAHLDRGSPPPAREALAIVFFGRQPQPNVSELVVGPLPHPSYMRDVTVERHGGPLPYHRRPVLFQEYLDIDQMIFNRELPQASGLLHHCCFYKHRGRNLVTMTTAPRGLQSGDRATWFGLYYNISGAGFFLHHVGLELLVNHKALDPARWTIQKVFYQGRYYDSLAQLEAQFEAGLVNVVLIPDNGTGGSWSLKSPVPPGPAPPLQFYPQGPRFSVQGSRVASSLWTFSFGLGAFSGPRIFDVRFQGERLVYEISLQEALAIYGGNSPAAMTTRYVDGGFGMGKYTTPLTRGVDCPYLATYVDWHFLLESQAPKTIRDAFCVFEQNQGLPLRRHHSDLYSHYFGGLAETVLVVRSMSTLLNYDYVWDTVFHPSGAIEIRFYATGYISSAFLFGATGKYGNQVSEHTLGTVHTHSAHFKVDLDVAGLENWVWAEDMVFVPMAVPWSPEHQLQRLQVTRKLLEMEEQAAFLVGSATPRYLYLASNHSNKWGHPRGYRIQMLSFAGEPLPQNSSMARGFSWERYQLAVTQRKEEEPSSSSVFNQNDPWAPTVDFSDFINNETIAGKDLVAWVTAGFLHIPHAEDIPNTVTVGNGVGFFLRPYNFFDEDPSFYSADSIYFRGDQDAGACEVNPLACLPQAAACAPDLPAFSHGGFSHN
Description: Activity on recombinant human VAP-1, HRP-coupled Amplex Red hydrogen peroxide assay, benzylamine substrate. Particulars: 30 min incubation at 37° C., 1 mM benzylamine, read-out: Inhibitory Activity (IC50, nM) human VAP-1. In outline: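 Recombinant human VAP-1 in 50 mM sodium phosphate pH 7.4 preincubated with compound for 30 min at 37 °C, then 1 mM benzylamine, 200 uM Amplex Red and 1 U/mL HRP added. Resorufin fluorescence (ex 544/em 590 nm) followed over 1-2 h; % signal-rate decrease vs DMSO control, 8-point 4-parameter fit for IC50.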

For assay [3], the target named is T4, recombinant human MAO-B (monoamine oxidase-B) (Homo sapiens, UniProt P27338).
T4 construct: purchased Sigma-Aldrich
T4 sequence (P27338 1-520): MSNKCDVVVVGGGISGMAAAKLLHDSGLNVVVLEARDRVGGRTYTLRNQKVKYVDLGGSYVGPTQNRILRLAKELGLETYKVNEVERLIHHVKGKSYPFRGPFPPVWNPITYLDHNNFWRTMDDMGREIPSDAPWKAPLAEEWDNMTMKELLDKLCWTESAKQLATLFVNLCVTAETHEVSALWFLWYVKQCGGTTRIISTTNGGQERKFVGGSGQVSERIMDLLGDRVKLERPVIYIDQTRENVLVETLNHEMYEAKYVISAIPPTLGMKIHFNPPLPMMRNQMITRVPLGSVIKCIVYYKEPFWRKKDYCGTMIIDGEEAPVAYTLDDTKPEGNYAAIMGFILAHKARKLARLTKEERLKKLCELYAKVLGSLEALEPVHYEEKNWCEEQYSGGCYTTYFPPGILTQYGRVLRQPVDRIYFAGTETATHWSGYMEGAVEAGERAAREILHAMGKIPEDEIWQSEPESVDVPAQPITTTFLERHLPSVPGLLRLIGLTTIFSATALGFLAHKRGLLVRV
The experiment in a line: Activity on recombinant human MAO-B, method similar to VAP-1 assay, 1 mM benzylamine substrate. Particulars: read-out: Inhibitory Activity (IC50, nM) MAO-B. In outline:
as §1

Structures can show the parent of a compound that is named as a salt.

For orientation: IC50 means the point on the concentration scale where inhibition reaches its midpoint.

With `Cc1cc(-c2ccc3nn(C/C(=C/F)CN)c(=O)n3c2)cc2c1NC(=O)CC2` [Example 17, 6-[2-[(2E)-2-(aminomethyl)-3-fluoroprop-2-en-1-yl]-3-oxo-2,3-dihydro[1,2,4]triazolo[4,3-a]pyridin-6-yl]-8-methyl-3,4-dihydroquinolin-2(1H)-one hydrochloride], the IC50 in assay [1] was above 100000 nM; in assay [2], 0.3 nM; at recombinant human VAP-1, 0.6 nM; in assay [3] it was 290 nM.

`NCC(Cn1nc2ccc(Br)cn2c1=O)=C(F)F` [Example 46, 2-[2-(aminomethyl)-3,3-difluoro-allyl]-6-bromo-[1,2,4]triazolo[4,3-a]pyridin-3-one trifluoroacetate]: the half-maximal inhibitory concentration (IC50) is above 100000 nM in assay [1], 26000 nM in assay [2], 36 nM at recombinant human VAP-1 and above 100000 nM in assay [3].

On to `NC/C(=C\F)Cn1nc2cc(C3=CCNCC3)ccn2c1=O` [Example 34, 2-[(2E)-2-(aminomethyl)-3-fluoroprop-2-en-1-yl]-7-(1,2,3,6-tetrahydropyridin-4-yl)[1,2,4]triazolo[4,3-a]pyridin-3(2H)-one dihydrochloride], for which the IC50 in assay [1] is above 100000 nM; in assay [2], 1 nM; on recombinant human VAP-1, 2 nM; in assay [3], above 100000 nM.

Turning to `NC/C(=C\F)Cn1nc2cc(-c3ccc4c(c3)OCO4)ccn2c1=O` [Example 36, 2-[(2E)-2-(aminomethyl)-3-fluoroprop-2-en-1-yl]-7-(1,3-benzodioxol-5-yl)[1,2,4]triazolo[4,3-a]pyridin-3(2H)-one hydrochloride], the half-inhibitory concentration (IC50) is 66000 nM in assay [1], 20 nM in assay [2], 0.3 nM at recombinant human VAP-1 and 3.8 nM in assay [3].

For `NC/C(=C\F)Cn1nc2cc(-c3ccc4nn[nH]c4c3)ccn2c1=O` [Example 39, 2-[(2E)-2-(aminomethyl)-3-fluoroprop-2-en-1-yl]-7-(1H-benzotriazol-6-yl)[1,2,4]triazolo[4,3-a]pyridin-3(2H)-one hydrochloride], the IC50 in assay [1] was 96000 nM; in assay [2] it was 0.2 nM; on recombinant human VAP-1, 0.1 nM; in assay [3], 1100 nM.

Turning to `NC/C(=C\F)Cn1nc2ccc(-c3ccc(-c4ccon4)cc3)cn2c1=O` [Example 7, 2-[(2E)-2-(aminomethyl)-3-fluoroprop-2-en-1-yl]-6-[4-(1,2-oxazol-3-yl)phenyl][1,2,4]triazolo[4,3-a]pyridin-3(2H)-one hydrochloride], the IC50 in assay [1] is above 100000 nM; in assay [2], 0.2 nM; on recombinant human VAP-1, 2.3 nM; in assay [3], 25 nM.

As for `NC/C(=C\F)Cn1nc2ccc(-c3ccc4c(c3)OCO4)cn2c1=O` [Example 12, 2-[(2E)-2-(aminomethyl)-3-fluoroprop-2-en-1-yl]-6-(1,3-benzodioxol-5-yl)[1,2,4]triazolo[4,3-a]pyridin-3(2H)-one hydrochloride], the IC50 in assay [1] was 14000 nM; in assay [2], 1.1 nM; on recombinant human VAP-1, 3.4 nM; in assay [3], below 10 nM.

In the case of `NC/C(=C\F)Cn1nc2cc(-c3ccnc4[nH]ccc34)ccn2c1=O` [Example 40, 2-[(2E)-2-(aminomethyl)-3-fluoroprop-2-en-1-yl]-7-(1H-pyrrolo[2,3-b]pyridin-4-yl)[1,2,4]triazolo[4,3-a]pyridin-3(2H)-one hydrochloride], the half-maximal inhibitory concentration (IC50) is above 100000 nM in assay [1], 9.4 nM in assay [2], 0.3 nM on recombinant human VAP-1 and 760 nM in assay [3].

For `NC/C(=C\F)Cn1nc2ccc(-c3ccc4nonc4c3)cn2c1=O` [Example 16, 2-[(2E)-2-(aminomethyl)-3-fluoroprop-2-en-1-yl]-6-(2,1,3-benzoxadiazol-5-yl)[1,2,4]triazolo[4,3-a]pyridin-3(2H)-one trifluoroacetate], the IC50 in assay [1] is 10200 nM; in assay [2], below 100 nM; on recombinant human VAP-1 it was 4.5 nM; in assay [3], 52 nM.

Turning to `NCC(Cn1nc2cccc(Br)n2c1=O)=C(F)F` [Example 45, 2-[2-(aminomethyl)-3,3-difluoro-allyl]-5-bromo-[1,2,4]triazolo[4,3-a]pyridin-3-one trifluoroacetate], the IC50 was above 100000 nM in assay [1], 11000 nM in assay [2], 24 nM on recombinant human VAP-1 and above 100000 nM in assay [3].

As to `CCn1cc(-c2ccn3c(=O)n(CC(CN)=C(F)F)nc3c2)cn1` [Example 55, 2-[2-(aminomethyl)-3,3-difluoro-allyl]-7-(1-ethylpyrazol-4-yl)-[1,2,4]triazolo[4,3-a]pyridin-3-one trifluoroacetate], the 50% inhibitory concentration (IC50) in assay [1] was above 100000 nM; in assay [2], 1800 nM; on recombinant human VAP-1, 0.4 nM; in assay [3], 5100 nM.

In the case of `CC(=O)Nc1nc2cc(-c3ccc4nn(C/C(=C/F)CN)c(=O)n4c3)ccc2s1` [Example 15, N-[5-[2-[(2E)-2-(aminomethyl)-3-fluoroprop-2-en-1-yl]-3-oxo-2,3-dihydro[1,2,4]triazolo[4,3-a]pyridin-6-yl]-1,3-benzothiazol-2-yl]acetamide trifluoroacetate], the half-maximal inhibitory concentration (IC50) in assay [1] was above 100000 nM; in assay [2], below 100 nM; at recombinant human VAP-1, 9.3 nM; in assay [3], 597 nM.

These data come from patent US11091479B2, “Triazolopyridin-3-ones or their salts and pharmaceutical compositions comprising the same” (YUHAN CORPORATION, priority 2018, dated 2021).
